One block for each molecule: values may come before it. Activity calls are given as the source filed them. No cut-off for these calls is given here.
Legend:
MGC-803 = experiment: Antiproliferative activity against human MGC803 cells assessed as reduction in cell viability incubated for 72 hrs by SRB assay; type: functional, cell-based; details: MGC-803, 72 h
[1] = Solubility of compound in water; type: physicochemical; details: buffer
MCF7 = experiment: Antiproliferative activity against human MCF7 cells assessed as reduction in cell viability incubated for 72 hrs by SRB assay; type: functional, cell-based; details: MCF7, 72 h
TE-1 [2] = experiment: Antiproliferative activity against human TE1 cells assessed as reduction in cell viability incubated for 72 hrs by SRB assay; type: functional, cell-based; details: for IC50: TE-1, 72 h
A549 = experiment: Antiproliferative activity against human A549 cells assessed as reduction in cell viability incubated for 72 hrs by SRB assay; type: functional, cell-based; details: A549, 72 h
TE-1 [3] = experiment: Inhibition of colony formation in human TE1 cells at 1 umol/l incubated for 24 hrs supplemented with fresh medium and measured after 7 days by crystal violet staining based assay relative to control; type: functional
TE-1 [4] = experiment: Induction of apoptosis in human TE1 cells assessed as increase in Bax expression at 0.75 to 3 umol/L incubated for 48 hrs by Western blot analysis; type: functional, cell-based
TE-1 [5] = experiment: Induction of apoptosis in human TE1 cells assessed as increase in cleaved caspase-3 level at 0.75 to 3 umol/L incubated for 48 hrs by Western blot analysis; type: functional, cell-based
TE-1 [6] = experiment: Induction of apoptosis in human TE1 cells assessed as increase in cleaved PARP level at 0.75 to 3 umol/L incubated for 48 hrs by Western blot analysis; type: functional, cell-based
TE-1 [7] = experiment: Induction of apoptosis in human TE1 cells assessed as decrease in Bcl2 expression at 0.75 to 3 umol/L incubated for 48 hrs by Western blot analysis; type: functional, cell-based
TE-1 [8] = experiment: Induction of apoptosis in human TE1 cells assessed as increase in NOXA protein level at 0.75 to 3 umol/L incubated for 48 hrs by Western blot analysis; type: functional, cell-based
GES1 = experiment: Cytotoxicity against human GES-1 cells assessed as reduction in cell viability by SRB assay; type: cell-based
TE-1 [9] = experiment: Induction of apoptosis in human TE1 cells assessed as early apoptotic cells at 0.75 umol/L incubated for 48 hrs by annexin V-FITC and propidium iodide staining based flow cytometry (reference value: 0.9 %); type: functional
TE-1 [10] = experiment: Inhibition of colony formation in human TE1 cells incubated for 24 hrs supplemented with fresh medium and measured after 7 days by crystal violet staining based assay; type: functional, cell-based
TE-1 [11] = experiment: Induction of ROS production in human TE1 cells at 0.75 umol/L incubated for 48 hrs by DCFH-DA staining based flow cytometry (reference value: 2.4 %); type: functional
TE-1 [12] = experiment: Induction of apoptosis in human TE1 cells assessed as increase in cleaved caspase-9 level at 0.75 to 3 umol/L incubated for 48 hrs by Western blot analysis; type: functional, cell-based
Homo sapiens [13] = organism: Homo sapiens; experiment: Activation of SAPK/JNK signalling pathway in human TE1 cells assessed as increase in JNK phosphorylation at 0.75 to 3 umol/L incubated for 48 hrs by Western blot analysis; type: cell-based
TE-1 [14] = experiment: Induction of ROS production in human TE1 cells at 1.5 umol/L incubated for 48 hrs by DCFH-DA staining based flow cytometry (reference value: 2.4 %); type: functional
TE-1 [15] = experiment: Induction of apoptosis in human TE1 cells assessed as late apoptotic cells at 0.75 umol/L incubated for 48 hrs by annexin V-FITC and propidium iodide staining based flow cytometry (reference value: 2.8 %); type: functional
TE-1 [16] = experiment: Induction of ROS production in human TE1 cells at 3 umol/L incubated for 48 hrs by DCFH-DA staining based flow cytometry (reference value: 2.4 %); type: functional
TE-1 [17] = experiment: Induction of apoptosis in human TE1 cells assessed as late apoptotic cells at 1.5 umol/L incubated for 48 hrs by annexin V-FITC and propidium iodide staining based flow cytometry (reference value: 2.8 %); type: functional
Homo sapiens [18] = organism: Homo sapiens; experiment: Activation of SAPK/JNK signalling pathway in human TE1 cells assessed as increase in MKK4 phosphorylation at 0.75 to 3 umol/L incubated for 48 hrs by Western blot analysis; type: cell-based
TE-1 [19] = experiment: Induction of apoptosis in human TE1 cells assessed as increase in Bax-Bcl2 ratio at 0.75 to 3 umol/L incubated for 48 hrs by Western blot analysis; type: functional, cell-based
TE-1 [20] = experiment: Induction of apoptosis in human TE1 cells assessed as increase in Bak protein level at 0.75 to 3 umol/L incubated for 48 hrs by Western blot analysis; type: functional, cell-based
TE-1 [21] = experiment: Induction of apoptosis in human TE1 cells assessed as early apoptotic cells at 1.5 umol/L incubated for 48 hrs by annexin V-FITC and propidium iodide staining based flow cytometry (reference value: 0.9 %); type: functional
Homo sapiens [22] = organism: Homo sapiens; experiment: Activation of SAPK/JNK signalling pathway in human TE1 cells assessed as increase in ASK1 phosphorylation at 1.5 and 3 umol/L incubated for 48 hrs by Western blot analysis; type: cell-based
TE-1 [23] = experiment: Induction of apoptosis in human TE1 cells assessed as early apoptotic cells at 3 umol/L incubated for 48 hrs by annexin V-FITC and propidium iodide staining based flow cytometry (reference value: 0.9 %); type: functional
TE-1 [24] = experiment: Induction of apoptosis in human TE1 cells assessed as late apoptotic cells at 3 umol/L incubated for 48 hrs by annexin V-FITC and propidium iodide staining based flow cytometry (reference value: 2.8 %); type: functional
TE-1 [25] = experiment: Induction of apoptosis in human TE1 cells assessed as increase in Bad protein level at 0.75 to 3 umol/L incubated for 48 hrs by Western blot analysis; type: functional, cell-based

IC50 (MGC-803): 11200 nM
solubility [1]: Insoluble
IC50 (MCF7): 4420 nM
IC50 (A549): 11000 nM
Structure (SMILES): C=C1C(=O)[C@]23[C@H](OC(=O)[C@H](CCCC)NC(=O)OC(C)(C)C)[C@H]1C[C@H](O)[C@H]2[C@]1(COC(C)=O)CCCC(C)(C)[C@H]1C[C@H]3OC
IC50 (TE-1 [2]): 4490 nM

IC50 (MGC-803): 1500 nM
solubility [1]: Soluble
IC50 (MCF7): 890 nM
IC50 (A549): 1200 nM
Structure (SMILES): C=C1C(=O)[C@]23[C@H](OC(=O)[C@H](Cc4ccccc4)NC)[C@H]1C[C@H](O)[C@H]2[C@]1(COC(C)=O)CCCC(C)(C)[C@H]1C[C@H]3OC.O=C(O)C(F)(F)F
inhibition at 1 µM (TE-1 [3]): 100%
Activity (TE-1 [4]): Active
Activity (TE-1 [5]): Active
Activity (TE-1 [6]): Active
Activity (TE-1 [7]): Active
Activity (TE-1 [8]): Active
Activity (GES1): Tde and Dose-dependent effect
Activity (TE-1 [9]): 2.8%
inhibition (TE-1 [10]): Dose-dependent effect
Activity (TE-1 [11]): 10.4%
Activity (TE-1 [12]): Active
Activity (Homo sapiens [13]): Active
Activity (TE-1 [14]): 36.4%
Activity (TE-1 [15]): 5.1%
Activity (TE-1 [16]): 73.1%
Activity (TE-1 [17]): 12%
Activity (Homo sapiens [18]): Active
Activity (TE-1 [19]): Active
Activity (TE-1 [20]): Active
Activity (TE-1 [21]): 5%
Activity (Homo sapiens [22]): Active
inhibition (TE-1 [2]): Dose-dependent effect
IC50 (TE-1 [2]): 750 nM
Activity (TE-1 [23]): 8.7%
Activity (TE-1 [24]): 30.7%
Activity (TE-1 [25]): Active

IC50 (MGC-803): 3880 nM
solubility [1]: Soluble
IC50 (MCF7): 3750 nM
IC50 (A549): 4420 nM
Structure (SMILES): C=C1C(=O)[C@]23[C@H](OC(=O)[C@@H](N)CC)[C@H]1C[C@H](O)[C@H]2[C@]1(COC(C)=O)CCCC(C)(C)[C@H]1C[C@H]3OC.O=C(O)C(F)(F)F
IC50 (TE-1 [2]): 2570 nM

IC50 (MGC-803): 3220 nM
solubility [1]: Insoluble
IC50 (MCF7): 3060 nM
IC50 (A549): 6220 nM
Structure (SMILES): C=C1C(=O)[C@]23[C@H](OC(=O)[C@H](Cc4ccccc4)NC(=O)OC(C)(C)C)[C@H]1C[C@H](O)[C@H]2[C@]1(COC(C)=O)CCCC(C)(C)[C@H]1C[C@H]3OC
IC50 (TE-1 [2]): 2440 nM

IC50 (MGC-803): 2210 nM
solubility [1]: Insoluble
IC50 (MCF7): 1580 nM
IC50 (A549): 2940 nM
Structure (SMILES): C=C1C(=O)[C@]23[C@H](OC(=O)[C@@H](NC(=O)OC(C)(C)C)c4ccccc4)[C@H]1C[C@H](O)[C@H]2[C@]1(COC(C)=O)CCCC(C)(C)[C@H]1C[C@H]3OC
IC50 (TE-1 [2]): 870 nM

IC50 (MGC-803): 2880 nM
solubility [1]: Insoluble
IC50 (MCF7): 2730 nM
IC50 (A549): 3940 nM
Structure (SMILES): C=C1C(=O)[C@]23[C@H](OC(=O)[C@@H](NC(=O)OC(C)(C)C)C(C)C)[C@H]1C[C@H](O)[C@H]2[C@]1(COC(C)=O)CCCC(C)(C)[C@H]1C[C@H]3OC
IC50 (TE-1 [2]): 1680 nM

IC50 (MGC-803): 1510 nM
solubility [1]: Insoluble
IC50 (MCF7): 2460 nM
IC50 (A549): 3150 nM
Structure (SMILES): C=C1C(=O)[C@]23[C@H](OC(=O)[C@H](Cc4ccccc4)N(C)C(=O)OC(C)(C)C)[C@H]1C[C@H](O)[C@H]2[C@]1(COC(C)=O)CCCC(C)(C)[C@H]1C[C@H]3OC
IC50 (TE-1 [2]): 1160 nM

IC50 (MGC-803): 2640 nM
solubility [1]: Insoluble
IC50 (MCF7): 2360 nM
IC50 (A549): 5630 nM
Structure (SMILES): C=C1C(=O)[C@]23[C@H](OC(=O)[C@H](C)NC(=O)OC(C)(C)C)[C@H]1C[C@H](O)[C@H]2[C@]1(COC(C)=O)CCCC(C)(C)[C@H]1C[C@H]3OC
IC50 (TE-1 [2]): 1070 nM

IC50 (MGC-803): 1640 nM
solubility [1]: Soluble
IC50 (MCF7): 3200 nM
IC50 (A549): 1890 nM
Structure (SMILES): C=C1C(=O)[C@]23[C@H](OC(=O)[C@@H](NC)C(C)C)[C@H]1C[C@H](O)[C@H]2[C@]1(COC(C)=O)CCCC(C)(C)[C@H]1C[C@H]3OC.O=C(O)C(F)(F)F
IC50 (TE-1 [2]): 1160 nM

IC50 (MGC-803): 3000 nM
solubility [1]: Insoluble
IC50 (MCF7): 2690 nM
IC50 (A549): 3570 nM
Structure (SMILES): C=C1C(=O)[C@]23[C@H](OC(=O)[C@@H]4CCCCN4C(=O)OC(C)(C)C)[C@H]1C[C@H](O)[C@H]2[C@]1(COC(C)=O)CCCC(C)(C)[C@H]1C[C@H]3OC
IC50 (TE-1 [2]): 1460 nM

IC50 (MGC-803): 3150 nM
solubility [1]: Soluble
IC50 (MCF7): 2570 nM
IC50 (A549): 3860 nM
Structure (SMILES): C=C1C(=O)[C@]23[C@H](OC(=O)CN)[C@H]1C[C@H](O)[C@H]2[C@]1(COC(C)=O)CCCC(C)(C)[C@H]1C[C@H]3OC.O=C(O)C(F)(F)F
IC50 (TE-1 [2]): 1850 nM

IC50 (MGC-803): 10500 nM
solubility [1]: Soluble
IC50 (MCF7): 7370 nM
IC50 (A549): 3960 nM
Structure (SMILES): C=C1C(=O)[C@]23[C@H](OC(=O)[C@H](C)N)[C@H]1C[C@H](O)[C@H]2[C@]1(COC(C)=O)CCCC(C)(C)[C@H]1C[C@H]3OC.O=C(O)C(F)(F)F
IC50 (TE-1 [2]): 3070 nM

IC50 (MGC-803): 4940 nM
solubility [1]: Soluble
IC50 (MCF7): 4570 nM
IC50 (A549): 1640 nM
Structure (SMILES): C=C1C(=O)[C@]23[C@H](OC(=O)[C@@H](N)CCC)[C@H]1C[C@H](O)[C@H]2[C@]1(COC(C)=O)CCCC(C)(C)[C@H]1C[C@H]3OC.O=C(O)C(F)(F)F
IC50 (TE-1 [2]): 1720 nM

IC50 (MGC-803): 9940 nM
solubility [1]: Insoluble
IC50 (MCF7): 5450 nM
IC50 (A549): 6770 nM
Structure (SMILES): C=C1C(=O)[C@@]23[C@H](O)C[C@@H]4C(C)(C)CCC[C@@]4(COC(C)=O)[C@@H]2[C@@H](O)C[C@@H]1[C@H]3O [FLEXICANLIN A]
IC50 (TE-1 [2]): 5070 nM

IC50 (MGC-803): 1000 nM
solubility [1]: Soluble
IC50 (MCF7): 1010 nM
IC50 (A549): 2710 nM
Structure (SMILES): C=C1C(=O)[C@]23[C@H](OC(=O)[C@@H](N)Cc4ccccc4)[C@H]1C[C@H](O)[C@H]2[C@]1(COC(C)=O)CCCC(C)(C)[C@H]1C[C@H]3OC.O=C(O)C(F)(F)F
IC50 (TE-1 [2]): 1880 nM

Reference: ChEMBL document CHEMBL4406842, “Synthesis and in vitro biological evaluation of novel derivatives of Flexicaulin A condensation with amino acid trifluoroacetate” (Eur J Med Chem, 2019)
